The text below walks through data of ChEMBL document CHEMBL1201862, “PubChem BioAssay data set” (2004).

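Test compounds were applied to cells in 96-well plates for 48 hours at 5 doses. GI50 is the concentration that inhibits growth by half.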 The source made the active and inactive calls. Rule as the data show it: active = GI50 up to about 1.1 µM and inactive = higher.

Test systems include 786-0; CCRF-CEM; EKVX; HCT-15; HOP-62; HOP-92; HT-29; KM12; MCF7; MDA-MB-435; NCI-H522; OVCAR-4; OVCAR-5; PC-3; SF-539; SK-OV-3; SNB-19; TK-10; SNB-75; BT-549.
Holding throughout (experiment): growth of human tumour cells (NCI), 48 h

Consider `O=[N+]([O-])C(/C=C(\Cl)[N+](=O)[O-])=C(N1CCCCC1)N1CCCCC1`, for which the GI50 with 786-0 was 36.6 µM (inactive); in the test with CCRF-CEM it was 13.2 µM (inactive); with EKVX it was > 100 µM (inactive); in the test with HCT-15, 25.3 µM; in the test on HOP-62, 39.6 µM (inactive); in the test on HOP-92, > 100 µM (inactive). The GI50 with HT-29 was 31.3 µM (inactive); in the test on KM12 it was > 100 µM (inactive); in the test on MCF7 it was 0.631 µM (active); in the test on MDA-MB-435 it was 16.7 µM (inactive); in the test with NCI-H522 it was 58.6 µM (inactive); in the test on OVCAR-4, 23.9 µM (inactive). Further, the GI50 was 95.5 µM (inactive) with OVCAR-5; 39.6 µM (inactive) in the test with PC-3; 25.9 µM (inactive) with SF-539; > 100 µM (inactive) with SK-OV-3; > 100 µM (inactive) with SNB-19; > 100 µM (inactive) in the test on TK-10.

`Clc1ccccc1CN1COc2c(cc(Cl)c3cccnc23)C1`: the GI50 was 4.39 µM (inactive) in the test with 786-0; 0.165 µM in the test on HCT-15; 3.05 µM (inactive) with HOP-62; 3.18 µM (inactive) with HOP-92; 19.2 µM (inactive) in the test on HT-29; 3.03 µM (inactive) in the test on KM12. For the same compound, the GI50 in the test with MCF7 was 4.94 µM (inactive); in the test with MDA-MB-435, 6.19 µM (inactive); in the test on NCI-H522, 3.4 µM (inactive); with OVCAR-4, 3.97 µM (inactive); with OVCAR-5, 4.28 µM (inactive); in the test on PC-3 it was 2.57 µM (inactive). The GI50 with SF-539 is 2.69 µM (inactive); with SK-OV-3, 8.75 µM (inactive); with SNB-19 it was 4.35 µM (inactive); in the test with SNB-75, 5.68 µM (inactive); with TK-10, 3.44 µM (inactive).

In the case of `CN(C)c1ccc(/C=C2\C[C@H]3[C@@H]4CCC5=CC(=O)CC[C@]5(C)[C@H]4CC[C@]3(C)C2=O)cc1`, the GI50 in the test with 786-0 is 48 µM (inactive); in the test on BT-549, 51.2 µM (inactive); in the test with EKVX it was 19.2 µM (inactive); in the test with HCT-15, 34.4 µM; with HOP-62, > 100 µM (inactive); in the test on HOP-92, 22.4 µM (inactive). The GI50 is 23.9 µM (inactive) with HT-29; 72.1 µM (inactive) in the test with KM12; 21.8 µM (inactive) in the test with MCF7; 59.7 µM (inactive) in the test with OVCAR-4; > 100 µM (inactive) in the test with OVCAR-5; 12.6 µM (inactive) in the test on PC-3. The GI50 was 28.7 µM (inactive) with SF-539; > 100 µM (inactive) in the test on SK-OV-3; > 100 µM (inactive) with SNB-19; > 100 µM (inactive) in the test on SNB-75; 32.5 µM (inactive) in the test with TK-10.

Consider `CCOC(=O)N(NC(=O)NC(C)C)c1ccccc1`, for which the GI50 with 786-0 was > 100 µM (inactive); in the test on BT-549, > 100 µM (inactive); with CCRF-CEM, > 100 µM (inactive); in the test with EKVX, > 100 µM (inactive); in the test with HCT-15, above 100 µM; in the test on HOP-62 it was > 100 µM (inactive). For the same compound, the GI50 in the test on HOP-92, in the test with HT-29, with KM12, with MCF7, in the test with OVCAR-4 and in the test on OVCAR-5 was > 100 µM (inactive) in each case. Further, the GI50 in the test with PC-3, in the test on SF-539, in the test on SK-OV-3, with SNB-19, in the test with SNB-75 and in the test with TK-10 was > 100 µM (inactive) each time.

Turning to `c1ccc2sc(C3(N4CCC5(CC4)OCCO5)CCCCC3)cc2c1`, the GI50 was 99.1 µM (inactive) in the test on 786-0; > 100 µM (inactive) in the test on BT-549; 29 µM (inactive) with CCRF-CEM; > 100 µM (inactive) with EKVX; above 100 µM in the test on HCT-15; > 100 µM (inactive) with HOP-62. The GI50 in the test on HOP-92 was 25.8 µM (inactive); in the test with HT-29, 21.1 µM (inactive); with KM12, 56.4 µM (inactive); in the test on MCF7, 29.4 µM (inactive); in the test with MDA-MB-435, 58.6 µM (inactive); in the test on NCI-H522 it was 78 µM (inactive). For the same compound, the GI50 is > 100 µM (inactive) in the test on OVCAR-4; 55.5 µM (inactive) in the test on OVCAR-5; > 100 µM (inactive) in the test on SF-539; > 100 µM (inactive) in the test on SK-OV-3; > 100 µM (inactive) with SNB-19; 56.4 µM (inactive) in the test on SNB-75. The GI50 with TK-10 was 90.6 µM (inactive).

Consider `O=[N+]([O-])CC(SCc1ccccc1)c1ccc2c(c1)OCO2` (centres undefined), for which the GI50 in the test on 786-0 is 1.68 µM (inactive); with CCRF-CEM, 2.54 µM (inactive); with EKVX, 20.2 µM (inactive); with HCT-15, 3.84 µM; with HOP-62 it was 17.4 µM (inactive); with HOP-92, 3.79 µM (inactive). Further, the GI50 with HT-29 was 2.61 µM (inactive); in the test on KM12, 6.84 µM (inactive); in the test with MCF7, 3.04 µM (inactive); in the test on MDA-MB-435, 2.5 µM (inactive); in the test on NCI-H522 it was 11.5 µM (inactive); with OVCAR-4, 13.2 µM (inactive). The GI50 is 15.2 µM (inactive) in the test with OVCAR-5; 16.8 µM (inactive) in the test with PC-3; 4.01 µM (inactive) in the test on SF-539; 15.1 µM (inactive) in the test on SK-OV-3; 14 µM (inactive) with SNB-19; 15.1 µM (inactive) in the test with SNB-75. Further, the GI50 with TK-10 was 10.8 µM (inactive).

`O=C1CCc2nc3ncccc3cc2C1`: the GI50 with 786-0 was > 100 µM (inactive); with BT-549, > 100 µM (inactive); with CCRF-CEM it was 30.5 µM (inactive); in the test with EKVX it was > 100 µM (inactive); in the test on HCT-15, 96.4 µM; in the test on HOP-62, > 100 µM (inactive). Further, the GI50 was > 100 µM (inactive) in the test with HOP-92; 44 µM (inactive) in the test with MDA-MB-435; 22.2 µM (inactive) in the test with NCI-H522; > 100 µM (inactive) in the test with OVCAR-4; > 100 µM (inactive) with OVCAR-5; > 100 µM (inactive) with PC-3. In addition, the GI50 in the test on SK-OV-3, with SNB-19, in the test with SNB-75 and in the test on TK-10 was > 100 µM (inactive) throughout.

As to `COc1c(NC(C)=O)c2ccccc2c2ccccc12`, the GI50 was > 100 µM (inactive) in the test with 786-0; > 100 µM (inactive) in the test on BT-549; > 100 µM (inactive) in the test on CCRF-CEM; > 100 µM (inactive) in the test on EKVX; above 100 µM in the test on HCT-15; > 100 µM (inactive) with HOP-62. Further, the GI50 in the test with HOP-92 is 42.2 µM (inactive); in the test with HT-29, > 100 µM (inactive); in the test on KM12 it was > 100 µM (inactive); with MDA-MB-435, > 100 µM (inactive); with NCI-H522 it was > 100 µM (inactive); with OVCAR-4, > 100 µM (inactive). Besides, the GI50 in the test with OVCAR-5, in the test on PC-3, with SNB-19 and in the test on TK-10 was > 100 µM (inactive) throughout.

On to `CC(C)=CCNc1nc(Cl)nc2[nH]cnc12`, for which the GI50 in the test on 786-0 is 49.4 µM (inactive); in the test with CCRF-CEM, 76.6 µM (inactive); in the test with EKVX, 15.7 µM (inactive); with HOP-62, 27.9 µM (inactive); in the test with HOP-92 it was 35 µM (inactive); in the test on HT-29 it was > 100 µM (inactive). Moreover, the GI50 was > 100 µM (inactive) in the test on KM12; 29.6 µM (inactive) in the test on MCF7; > 100 µM (inactive) with MDA-MB-435; > 100 µM (inactive) in the test on NCI-H522; 54.1 µM (inactive) with OVCAR-4; > 100 µM (inactive) in the test on OVCAR-5. The GI50 in the test with PC-3 was > 100 µM (inactive); in the test with SF-539, > 100 µM (inactive); with SK-OV-3 it was 16.4 µM (inactive); with SNB-19 it was 29 µM (inactive); in the test with SNB-75, > 100 µM (inactive); with TK-10 it was 71.6 µM (inactive).

Turning to `C[C@@H]1C(=O)O[C@@H]2C[C@@]1(C)[C@@H]1C(=O)C3(O)OC14C2(C)OC(=O)[C@@]4(O)CCC1C3C(O)C=C2CC=CC(=O)[C@@]21C` (some centres undefined), the GI50 in the test on 786-0 is 33.1 µM (inactive); in the test with CCRF-CEM it was 13.6 µM (inactive); in the test on EKVX it was 40.6 µM (inactive); in the test with HCT-15, 34.4 µM; in the test with HOP-62 it was 63.5 µM (inactive); in the test with HT-29, 34 µM (inactive). For the same compound, the GI50 is 26.6 µM (inactive) with KM12; 36.3 µM (inactive) in the test on MCF7; 20.4 µM (inactive) in the test with MDA-MB-435; 27.8 µM (inactive) in the test with OVCAR-4; 25.5 µM (inactive) in the test on OVCAR-5; 36 µM (inactive) with PC-3. Besides, the GI50 in the test with SF-539 is 25.3 µM (inactive); with SK-OV-3, 47 µM (inactive); with SNB-19, 3.24 µM (inactive); with SNB-75, 15.7 µM (inactive); in the test with TK-10, 36.9 µM (inactive).

For `Cc1cc2c(cc1Cl)SSc1cc(Cl)c(C)cc1S(=O)(=O)Nc1nc(N)nn1C(O)n1nc(N)nc1NS2(=O)=O`, the GI50 in the test with 786-0 is > 10 µM (inactive); with BT-549 it was > 10 µM (inactive); in the test on CCRF-CEM it was > 10 µM (inactive); with EKVX, > 10 µM (inactive); in the test with HCT-15, above 10 µM; in the test on HOP-62, > 10 µM (inactive). For the same compound, the GI50 with HOP-92, in the test on HT-29, in the test on KM12, in the test with MCF7, in the test with NCI-H522 and with OVCAR-4 was > 10 µM (inactive) each time. In addition, the GI50 in the test with OVCAR-5, in the test on PC-3, in the test on SF-539, in the test on SK-OV-3, in the test with SNB-19 and in the test with SNB-75 was > 10 µM (inactive) in each case. Also, in the test on TK-10, the GI50 was > 10 µM (inactive).
